The text below walks through data of ChEMBL document CHEMBL5696442, “Discovery of type II inhibitors of TGFβ-activated kinase 1 (TAK1) and mitogen-activated protein kinase kinase kinase kinase 2 (MAP4K2)” (J Med Chem, 2015).

The test system of one experiment is BaF3. Kind of experiment: Antiproliferative activity against parental mouse BaF3 cells assessed reduction in cell viability measured after 48 hrs by Celltiter-glo assay. In kind it is functional, cell-based. The following applies: BaF3, 48 h.
For experiment [1], the target named is T1, Mitogen-activated protein kinase kinase kinase 5 (Homo sapiens) (UniProt Q99683).
T1 sequence (whole entry): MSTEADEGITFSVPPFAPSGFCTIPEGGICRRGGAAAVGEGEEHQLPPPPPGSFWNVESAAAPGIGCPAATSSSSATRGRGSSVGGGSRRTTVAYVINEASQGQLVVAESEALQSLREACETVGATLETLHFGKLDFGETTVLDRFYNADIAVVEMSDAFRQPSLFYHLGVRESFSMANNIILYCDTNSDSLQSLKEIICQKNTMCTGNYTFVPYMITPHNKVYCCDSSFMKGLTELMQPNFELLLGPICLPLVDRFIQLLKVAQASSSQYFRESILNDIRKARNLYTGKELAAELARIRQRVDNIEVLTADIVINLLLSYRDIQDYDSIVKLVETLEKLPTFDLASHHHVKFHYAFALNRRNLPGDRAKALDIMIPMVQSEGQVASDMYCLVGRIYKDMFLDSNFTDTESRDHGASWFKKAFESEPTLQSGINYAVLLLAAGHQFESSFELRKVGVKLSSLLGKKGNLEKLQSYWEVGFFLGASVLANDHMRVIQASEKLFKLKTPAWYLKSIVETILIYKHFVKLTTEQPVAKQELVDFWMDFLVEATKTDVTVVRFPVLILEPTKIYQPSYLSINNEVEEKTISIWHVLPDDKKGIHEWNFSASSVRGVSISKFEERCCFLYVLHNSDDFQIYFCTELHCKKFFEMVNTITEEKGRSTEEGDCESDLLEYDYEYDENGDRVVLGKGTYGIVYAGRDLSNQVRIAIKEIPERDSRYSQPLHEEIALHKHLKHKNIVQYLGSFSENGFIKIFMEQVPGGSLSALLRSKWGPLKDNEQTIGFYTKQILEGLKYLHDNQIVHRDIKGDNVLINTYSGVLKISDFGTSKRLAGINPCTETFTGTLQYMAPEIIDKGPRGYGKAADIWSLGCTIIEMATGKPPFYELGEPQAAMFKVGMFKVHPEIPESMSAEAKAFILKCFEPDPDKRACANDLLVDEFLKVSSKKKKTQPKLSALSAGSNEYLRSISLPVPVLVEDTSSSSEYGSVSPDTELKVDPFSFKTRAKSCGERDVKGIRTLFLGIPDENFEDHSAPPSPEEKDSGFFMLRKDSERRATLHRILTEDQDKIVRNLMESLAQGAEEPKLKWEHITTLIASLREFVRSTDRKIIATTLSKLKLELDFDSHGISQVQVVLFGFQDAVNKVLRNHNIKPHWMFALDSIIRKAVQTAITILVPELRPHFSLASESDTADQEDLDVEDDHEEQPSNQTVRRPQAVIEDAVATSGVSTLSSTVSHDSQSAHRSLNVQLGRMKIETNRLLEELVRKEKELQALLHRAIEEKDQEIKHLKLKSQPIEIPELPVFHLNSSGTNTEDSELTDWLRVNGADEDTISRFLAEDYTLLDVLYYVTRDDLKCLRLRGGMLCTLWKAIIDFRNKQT
In words: Inhibition of MAP3K5 Lys1 labeling site harbouring IAIKEIPERDSR in human A-375 cells at 0.05 uM by KiNativ Profiling analysis relative to control. In kind it is cell-based.

For experiment [2], the target named is T2, Scaffold protein ILK (Homo sapiens) (UniProt Q13418).
T2 sequence (whole entry): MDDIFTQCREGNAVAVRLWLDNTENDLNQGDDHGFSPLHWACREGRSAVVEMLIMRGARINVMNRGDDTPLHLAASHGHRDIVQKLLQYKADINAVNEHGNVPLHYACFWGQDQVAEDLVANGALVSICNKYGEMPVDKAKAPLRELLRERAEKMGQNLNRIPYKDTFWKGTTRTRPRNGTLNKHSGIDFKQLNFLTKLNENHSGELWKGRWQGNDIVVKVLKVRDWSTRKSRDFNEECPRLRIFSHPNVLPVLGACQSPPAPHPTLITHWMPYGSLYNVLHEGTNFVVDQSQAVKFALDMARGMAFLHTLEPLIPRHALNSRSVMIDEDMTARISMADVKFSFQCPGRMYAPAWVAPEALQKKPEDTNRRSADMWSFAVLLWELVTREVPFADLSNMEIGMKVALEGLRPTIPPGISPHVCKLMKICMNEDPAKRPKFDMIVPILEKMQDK
In words: Inhibition of ILK ACT labeling site in human Huh-7 cells at 10 uM by KiNativ Profiling analysis relative to control. In kind it is cell-based.

The target of experiment [3] is T3, Phosphorylase b kinase gamma catalytic chain, liver/testis isoform (Homo sapiens) (UniProt P15735).
T3 sequence (whole entry): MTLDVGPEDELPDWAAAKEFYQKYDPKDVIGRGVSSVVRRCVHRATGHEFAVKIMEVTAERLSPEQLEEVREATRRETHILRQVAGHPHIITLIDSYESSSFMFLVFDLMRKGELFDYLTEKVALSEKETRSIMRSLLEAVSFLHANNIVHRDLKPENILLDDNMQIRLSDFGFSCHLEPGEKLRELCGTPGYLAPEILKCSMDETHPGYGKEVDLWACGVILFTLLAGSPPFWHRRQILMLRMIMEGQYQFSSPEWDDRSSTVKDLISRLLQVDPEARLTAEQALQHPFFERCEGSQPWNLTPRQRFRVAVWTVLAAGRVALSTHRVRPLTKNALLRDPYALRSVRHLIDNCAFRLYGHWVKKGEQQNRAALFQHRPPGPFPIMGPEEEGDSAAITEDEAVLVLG
Kind of experiment: Inhibition of PHKg2 Lys1 labeling site in human Huh-7 cell lysate at 1 uM by KiNativ Profiling analysis relative to control. Type of experiment: subcellular.

Experiment [4] has as its target T4, Phosphatidylinositol 5-phosphate 4-kinase type-2 gamma (Homo sapiens) (UniProt Q8TBX8).
T4 sequence (whole entry): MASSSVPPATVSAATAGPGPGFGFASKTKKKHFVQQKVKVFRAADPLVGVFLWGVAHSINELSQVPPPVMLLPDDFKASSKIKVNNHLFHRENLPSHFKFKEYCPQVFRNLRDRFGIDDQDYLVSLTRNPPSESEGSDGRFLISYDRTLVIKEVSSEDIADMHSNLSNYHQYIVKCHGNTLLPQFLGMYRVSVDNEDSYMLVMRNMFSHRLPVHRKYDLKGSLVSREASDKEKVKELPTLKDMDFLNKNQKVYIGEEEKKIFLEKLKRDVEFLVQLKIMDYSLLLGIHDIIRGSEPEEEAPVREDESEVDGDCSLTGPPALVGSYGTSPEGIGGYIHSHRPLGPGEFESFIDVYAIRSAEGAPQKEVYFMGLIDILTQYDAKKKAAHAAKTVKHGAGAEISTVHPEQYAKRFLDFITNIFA
In words: Inhibition of PIP4K2C ATP labeling site harbouring TLVIKEVSSEDIADMHSNLSNYHQYIVK in human Huh-7 cell lysate at 1 uM by KiNativ Profiling analysis relative to control. In kind it is subcellular.

The target of experiment [5] is Ribosomal protein S6 kinase alpha-3 (Homo sapiens) (UniProt P51812). Kind of experiment: Inhibition of RSK2 domain2 Lys1 labeling site in human Huh-7 cells at 1 uM by KiNativ Profiling analysis relative to control. In kind it is cell-based.
Ribosomal protein S6 kinase alpha-3 (Homo sapiens), sequence (P51812 whole entry, the tested form may be a part): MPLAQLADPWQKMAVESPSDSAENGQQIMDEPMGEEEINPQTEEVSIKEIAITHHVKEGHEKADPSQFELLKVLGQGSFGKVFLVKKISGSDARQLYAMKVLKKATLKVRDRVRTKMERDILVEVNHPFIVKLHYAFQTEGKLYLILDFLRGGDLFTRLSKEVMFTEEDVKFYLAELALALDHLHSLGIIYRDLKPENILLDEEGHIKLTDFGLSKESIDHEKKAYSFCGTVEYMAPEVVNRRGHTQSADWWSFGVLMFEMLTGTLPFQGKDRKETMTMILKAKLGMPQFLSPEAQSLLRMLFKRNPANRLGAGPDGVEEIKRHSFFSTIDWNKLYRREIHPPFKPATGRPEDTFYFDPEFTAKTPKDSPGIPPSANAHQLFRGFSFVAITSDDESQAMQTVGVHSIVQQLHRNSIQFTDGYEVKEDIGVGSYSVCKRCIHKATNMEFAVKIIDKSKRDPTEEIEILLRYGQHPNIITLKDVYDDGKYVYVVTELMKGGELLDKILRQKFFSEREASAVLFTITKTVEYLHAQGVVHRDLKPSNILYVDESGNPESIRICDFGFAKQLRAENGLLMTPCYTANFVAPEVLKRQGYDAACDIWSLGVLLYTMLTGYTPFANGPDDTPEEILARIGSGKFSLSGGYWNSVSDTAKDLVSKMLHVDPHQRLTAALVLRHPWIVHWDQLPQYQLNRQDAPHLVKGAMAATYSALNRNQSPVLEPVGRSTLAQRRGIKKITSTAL

Consider `CCN1CCN(Cc2ccc(NC(=O)c3ccc(C)c(/C=C/c4cnc5[nH]ccc5c4OC)c3)cc2C(F)(F)F)CC1`, for which the IC50 in the experiment with BaF3 amounted to 4.02 µM.
With `CCN1CCN(Cc2ccc(NC(=O)c3ccc(C)c(Oc4ccnc5[nH]ccc45)c3)cc2C(F)(F)F)CC1`, the inhibition in experiment [1] is -3.3%; in experiment [2] it was -1.1%.
In the case of `CNc1cc(Oc2cc(C(=O)Nc3cc(N4CCN(C)CC4)cc(C(F)(F)F)c3)ccc2C)ncn1`, the inhibition in experiment [3] was 0.2%; in experiment [4], -3.6%; in experiment [5], 4.1%.

Broadly, the IC50 is the concentration that inhibits the measured activity by half. By inhibition is commonly meant the relative decrease from the control value, in per cent.
